Laboratory results taken from article PMC9736855, “Discovery of 3-Amino-1H-pyrazole-Based Kinase Inhibitors to Illuminate the Understudied PCTAIRE Family” (International Journal of Molecular Sciences, 2022).

Columns and labels:
[1] = target: T1, CDK16 (Homo sapiens, UniProt Q00536); test: DSF; format: binding; details: 10 μM compound
T1 construct: purchased in-house DSF panel (SGC Frankfurt)
Source text: (§1) To investigate the selectivity profile of the different series, a differential scanning fluorimetry (DSF) assay was used. This assay offers a rapid and sensitive screening method that determines the denaturation temperature of a protein in absence and presence of a compound. This assay format measures the fluorescence of a dye, which depends on the folding state of the protein. The difference between the melting temperature (ΔTm) in the absence and presence of the compound represents the binding strength to the protein.
(§2) Measurements were performed in duplicates.

[2] = target: T2, CDK2 (Homo sapiens, UniProt P24941); test: DSF; format: binding; details: 10 μM compound
T2 construct: purchased in-house DSF panel (SGC Frankfurt)
Source text: as §1, §2

[3] = target: T3, CDK16/Cyclin Y (Homo sapiens, UniProt Q00536); test: NanoBRET; format: cell-based; details: Figure 7, 11-point dose-response in duplicates; read-out: NanoBRET EC50 ± SEM against CDK16
T3 construct: Full-length kinases were obtained as plasmids cloned in frame with a terminal NanoLuc-fusion; CS1810C178 (CCNY); host or cells: HEK293T
Method: Next, to specifically quantify the outcome of the cellular activity of the compounds, a NanoBRET cellular target engagement assay was performed. The determination of the cellular potency on CDK16 correlated well with the corresponding DSF assay data (Figure S2). […] As mentioned before, the exchange from a methyl ester to an iso-propyl or tert-butyl ester led to a higher stabilization of the kinase in the DSF assay, which correlated with an increase in cellular potency as determined in the NanoBRET assay. […] The number of potential off-targets was low with 1 and 2 kinases with ΔTm >5 °C (Figure 4), highlighting these inhibitors for more comprehensive selectivity studied within the CDK and particular the TAIRE subfamily.
(§3) The assay was performed as described previously. In brief: Full-length kinases were obtained as plasmids cloned in frame with a terminal NanoLuc-fusion (Promega, Madison, WI, USA), as specified in table (Table S6). Plasmids were transfected into HEK293T cells using FuGENE HD (Promega, E2312) and proteins were allowed to express for 20h. Serially diluted inhibitor and NanoBRET Kinase Tracer (Promega) at a concentration determined previously as the KD,app (Table S5) were pipetted into white 384-well plates (Greiner 781207) using an Echo acoustic dispenser (Labcyte, San Jose, CA, USA). The corresponding protein-transfected cells were added and reseeded at a density of 2.5 × 10^5 cells/mL after trypsinization and resuspending in Opti-MEM without phenol red (Life Technologies, Carlsbad, CA, USA). The system was allowed to equilibrate for 2 h at 37 °C/5% CO2 prior to BRET measurements. To measure BRET, NanoBRET NanoGlo Substrate + Extracellular NanoLuc Inhibitor (Promega, N2540) was added as per the manufacturer’s protocol, and filtered luminescence was measured on a PHERAstar plate reader (BMG Labtech, Ortenberg, Germany) equipped with a luminescence filter pair (450 nm BP filter (donor) and 610 nm LP filter (acceptor)). Competitive displacement data were then graphed using GraphPad Prism 9 software using a normalized 3-parameter curve fit with the following equation: Y = 100/(1 + 10^(X–LogEC50)).

[4] = test system: CDK16 and GSK3; test: proteome-wide CETSA MS; format: cell-based; details: K562 cells, 30 µM, 60 min
Method: To verify whether the substances also lead to stabilization of proteins in the cellular system, proteome-wide CETSA experiments were performed. Therefore, lead structure 1 and some compounds from the second series (21b, 21d, 21e, 21h, and 21i) were selected for this study (Figure 6, Figure S1). While the statistical significance is plotted on the Y-axis, the relative protein amount is shown on the X-axis. […] Based on excellent proteome-wide selectivity identifying CDK16 and GSK3 as the most prominently stabilized kinases, 21d and 21i were selected for further investigations. […] We therefore decided to proceed with a CDK16-specific cellular assay.
Compressed CETSA MS assays, also known as PISA (Proteome Integral Stability Alteration assay), were performed as previously described by Chernobrovkin et. al., with some minor changes. K562 cells were obtained from ATCC. K562 cells were mixed with an equal volume of compound solution, final concentartion of 30 µM, in a buffer (20 mM HEPES, 138 mM NaCl, 5 mM KCl, 2 mM CaCl2, 1 mM MgCl2, pH 7.4). One percent and DMSO was used as a control. Cells were incubated at +37 °C for 60 min. The cell suspension was split into 12 aliquots which were heated at a different temperature between 44 and 66 °C for 3 min. After the heating, the cells were lysed through freeze–thawing them 3 times and the lysed aliquots were pooled together. Cell debris and aggregates were removed through centrifugation (20 min at 30.000× g).

[5] = target: T4, GSK3B (Homo sapiens, UniProt P49841); test: DSF; format: binding; parameters: purchased in-house DSF panel (SGC Frankfurt); details: 10 μM compound
Source text: as §1, §2
Target sequence in this assay (P49841 35-386): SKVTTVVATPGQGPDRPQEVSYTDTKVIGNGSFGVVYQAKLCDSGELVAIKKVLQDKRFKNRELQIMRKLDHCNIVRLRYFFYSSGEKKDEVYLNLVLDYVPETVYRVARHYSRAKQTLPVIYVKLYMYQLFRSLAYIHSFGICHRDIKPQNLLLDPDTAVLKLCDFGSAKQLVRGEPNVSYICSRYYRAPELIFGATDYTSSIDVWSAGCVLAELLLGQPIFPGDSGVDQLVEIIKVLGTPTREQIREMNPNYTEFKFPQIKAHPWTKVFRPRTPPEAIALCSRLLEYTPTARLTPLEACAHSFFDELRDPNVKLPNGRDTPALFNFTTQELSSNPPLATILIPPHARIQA

[6] = test system: in-house panel of 89–105 kinases; test: DSF selectivity screen; format: binding; details: number of kinases of the DSF panel
Source text: To investigate the selectivity profile of the different series, a differential scanning fluorimetry (DSF) assay was used. This assay offers a rapid and sensitive screening method that determines the denaturation temperature of a protein in absence and presence of a compound. This assay format measures the fluorescence of a dye, which depends on the folding state of the protein. The difference between the melting temperature (ΔTm) in the absence and presence of the compound represents the binding strength to the protein. We used an in-house panel of 89–105 kinases to screen all synthesized inhibitors (Tables S1–S3).
as §2

[7] = target: T4, GSK3B; test: NanoBRET; format: cell-based; parameters: Full-length kinases were obtained as plasmids cloned in frame with a terminal NanoLuc-fusion; host or cells: HEK293T
Method: as §3, with “Competitive displacement data were then graphed using GraphPad Prism 9 software using a normalized 3-parameter curve fit with the following equation: Y = 100/(1 + 10^(X–LogEC50)).” left out
Target sequence in this assay (P49841 whole entry): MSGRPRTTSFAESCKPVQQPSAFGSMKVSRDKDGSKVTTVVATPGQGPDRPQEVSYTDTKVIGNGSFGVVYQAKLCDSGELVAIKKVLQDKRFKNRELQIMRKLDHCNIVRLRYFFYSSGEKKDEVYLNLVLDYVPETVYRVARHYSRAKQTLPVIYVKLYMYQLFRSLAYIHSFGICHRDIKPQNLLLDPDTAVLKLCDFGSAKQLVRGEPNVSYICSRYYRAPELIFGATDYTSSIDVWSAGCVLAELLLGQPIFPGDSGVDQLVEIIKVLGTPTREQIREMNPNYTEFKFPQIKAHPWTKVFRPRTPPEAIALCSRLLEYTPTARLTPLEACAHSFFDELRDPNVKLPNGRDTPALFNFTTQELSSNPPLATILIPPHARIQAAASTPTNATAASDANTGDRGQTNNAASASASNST

[8] = test system: CDK5; details: cited from earlier work
[9] = target: T2, CDK2; details: cited from earlier work
[10] = test system: 359 wild-type kinases; parameters: method as in PMID 19053485; details: kinome-wide screen; cited from earlier work

T3 sequence (Q00536 whole entry, the tested form may be a part): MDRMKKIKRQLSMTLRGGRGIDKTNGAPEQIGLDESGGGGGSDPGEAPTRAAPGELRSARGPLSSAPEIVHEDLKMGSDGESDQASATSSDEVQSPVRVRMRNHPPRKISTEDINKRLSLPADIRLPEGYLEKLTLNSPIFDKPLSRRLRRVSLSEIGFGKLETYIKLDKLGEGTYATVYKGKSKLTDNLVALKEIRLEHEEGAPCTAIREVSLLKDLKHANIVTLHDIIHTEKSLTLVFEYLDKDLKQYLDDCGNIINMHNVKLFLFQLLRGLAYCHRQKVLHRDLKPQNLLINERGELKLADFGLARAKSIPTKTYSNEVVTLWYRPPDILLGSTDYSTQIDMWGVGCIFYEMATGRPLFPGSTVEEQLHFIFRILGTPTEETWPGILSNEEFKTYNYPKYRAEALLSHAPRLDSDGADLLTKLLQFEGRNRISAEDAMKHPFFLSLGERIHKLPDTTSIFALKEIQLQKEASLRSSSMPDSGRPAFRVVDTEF
T3 sequence (Q8ND76 2-341 partner limits assumed): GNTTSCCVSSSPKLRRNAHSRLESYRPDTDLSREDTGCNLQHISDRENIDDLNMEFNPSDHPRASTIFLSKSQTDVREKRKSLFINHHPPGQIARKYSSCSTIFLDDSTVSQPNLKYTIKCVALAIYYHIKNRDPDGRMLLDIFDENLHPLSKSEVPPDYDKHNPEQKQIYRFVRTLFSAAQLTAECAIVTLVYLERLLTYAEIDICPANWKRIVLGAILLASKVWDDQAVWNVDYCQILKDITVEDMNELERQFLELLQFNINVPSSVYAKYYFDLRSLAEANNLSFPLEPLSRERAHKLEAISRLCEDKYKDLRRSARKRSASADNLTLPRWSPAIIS
T1 sequence (Q00536 163-478): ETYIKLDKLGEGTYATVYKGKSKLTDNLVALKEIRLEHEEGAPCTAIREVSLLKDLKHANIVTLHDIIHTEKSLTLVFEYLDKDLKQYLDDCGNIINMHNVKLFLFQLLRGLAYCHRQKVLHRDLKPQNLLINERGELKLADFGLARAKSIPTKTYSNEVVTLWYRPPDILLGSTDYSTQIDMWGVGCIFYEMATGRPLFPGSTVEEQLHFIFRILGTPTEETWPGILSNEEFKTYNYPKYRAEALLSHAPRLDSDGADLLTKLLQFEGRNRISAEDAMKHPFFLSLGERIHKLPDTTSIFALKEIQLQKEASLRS

EC50 [7] [nM]	SMILES	ΔTm at 10 µM [1] [°C]	ΔTm at 10 µM [2] [°C]	EC50 [3] [nM]	stabilization in CETSA MS [4]	ΔTm at 10 µM [5] [°C]	Kinases with shifts > 5°C [6]	affinity for CDK5 [8]	affinity for CDK2 [9]	number of kinases targeted of 359 wild-type kinases [10]
	COC(=O)c1cc(Nc2ccnc(Nc3cccc(CCNC(=O)OC(C)(C)C)c3)n2)[nH]n1 [21b, methyl 5-((2-((3-(2-((tert-butoxycarbonyl)amino)ethyl)phenyl)amino)pyrimidin-4-yl)amino)-1H-pyrazole-3-carboxylate]	4.9	4.6 ± 0.1	688 ± 22.5	stabilization of CDK16 and GSK3	8.6 ± 0.2				
	COC(=O)c1cc(Nc2ccnc(Nc3ccc(CNC(=O)OC(C)(C)C)cc3)n2)[nH]n1 [21h, methyl 5-((2-((4-(((tert-butoxycarbonyl)amino)methyl)phenyl)amino)pyrimidin-4-yl)amino)-1H-pyrazole-3-carboxylate]	5.1 ± 0.1	2.5 ± 0.2	391	stabilization of CDK16 and GSK3	6 ± 0.3	4–9			
	COC(=O)c1cc(Nc2ccnc(Nc3ccc(CC#N)cc3)n2)[nH]n1 [21f, methyl 5-((2-((4-(cyanomethyl)phenyl)amino)pyrimidin-4-yl)amino)-1H-pyrazole-3-carboxylate]	5.3	7.8	112 ± 8.6		12.3 ± 0.7	27			
	COC(=O)c1cc(Nc2ccnc(NCCCCCCNC(=O)OC(C)(C)C)n2)[nH]n1 [21e, methyl 5-((2-((6-((tert-butoxycarbonyl)amino)hexyl)amino)pyrimidin-4-yl)amino)-1H-pyrazole-3-carboxylate]	8.5	6.5 ± 0.1	152	stabilization of CDK16 and GSK3	8.6 ± 0.1				
18000	COC(=O)c1cc(Nc2ccnc(Nc3ccc(CCN)cc3)n2)n[nH]1 [compound 24, methyl 3-((2-((4-(2-aminoethyl)phenyl)amino)pyrimidin-4-yl)amino)-1H-pyrazole-5-carboxylate]	2.4 ± 0.1	3	2830 ± 544		9.5				
	Cc1cc(Nc2cc(N3CCN(C)CC3)nc(Sc3ccc(NC(=O)C4CC4)cc3)n2)[nH]n1 [tozasertib]							no affinity	no affinity	
	N#CCc1ccc(Nc2nc(Nc3cc(C4CC4)[nH]n3)c3ccccc3n2)cc1 [compound 3]									317
